How the values were obtained:
[1] = Einzeldosis; mittlere Partikelgröße 3,7 µm compared with 22 µm; cited from earlier work
[2] = system: Ovulationshemmung; test: optimal dose for reliable ovulation inhibition; format: in vivo; conditions: mikronisiert, mittlere Teilchengröße ca. 3 µm
Procedure: Als schwerlöslicher Wirkstoff wird Dienogest üblicherweise mikronisiert mit einer mittleren Teilchengröße von ca. 3 µm eingesetzt. Mit dieser Partikelgrößenverteilung wurde als optimale Dosis für eine sichere Ovulationshemmung 2 mg Dienogest ermittelt.

Row | SMILES | Plasmaspiegel [1] | optimale Dosis für eine sichere Ovulationshemmung [2]
1 | C[C@H]1O[C@@H](O[C@H]2[C@@H](O)C[C@H](O[C@H]3[C@@H](O)C[C@H](O[C@H]4CC[C@@]5(C)[C@H](CC[C@@H]6[C@@H]5C[C@@H](O)[C@]5(C)[C@@H](C7=CC(=O)OC7)CC[C@]65O)C4)O[C@@H]3C)O[C@@H]2C)C[C@H](O)[C@@H]1O [Digoxin] | fast doppelt so hohe | –
2 | C[C@]12CCC3=C4CCC(=O)C=C4CC[C@H]3[C@@H]1CC[C@@]2(O)CC#N [Dienogest, 17α-Cyanomethyl-17-β-hydroxyestra-4,9-dien-3on] | – | 2 mg
